≈ marks a conversion by molar mass, not a printed value. Positions of bridges follow the written chain, without caps; N, C: chain ends. Non-standard residues stand in square brackets, D forms with d. Residues, ends and D or L forms follow the SMILES beside them. S5 = C=CCCC[C@](C)(N)C(=O)O; Dab = NCC[C@H](N)C(=O)O; Dap = NC[C@H](N)C(=O)O
Key:
[1] = system: K. pneumoniae; type: cell-based, Klebsiella pneumoniae
Procedure: (§1) Antimicrobial Activity Assay: The following microbroth dilution protocol was adapted from CLSI to determine the minimum inhibitory concentration (MIC) of StAMPs. Briefly, Mueller-Hinton broth (MHB) or cation-adjusted Mueller-Hinton broth (MHB II) was prepared and autoclaved. Then, a colony of bacterial cells was picked and grown overnight in broth at 37° C. and then diluted and allowed to grow again for 3-4 hours. Serial dilutions of peptide stocks in water (10 μl) were prepared using clear round-bottom polypropylene 96-well plates. Then 90 μl of bacteria in broth was added to give a final inoculum of 5×10^5 CFU/ml. The plates were then covered with porous tape to reduce evaporation and incubated for 20-24 hours at 37° C. The MIC was the minimum peptide concentration at which no visible bacterial growth was observed.
(§2) Renal toxicity was measured after 90 minutes of incubation, while liver toxicity was measured after 48 hours of incubation with StAMPs. N/A=not tested. The following apply to all peptides (i.e., StAMPs) listed in Tables A-C: Crosslinks (X^1—X^2 and X^3—X^4): (alk); N-terminus: —NH2; C-terminus: amidated with —NH2; counterion: Cl^−. The following apply to all peptides (i.e., StAMPs) listed in Table D: Crosslinks (X^1—X^2 and X^3—X^4): (alk); N-terminus: —NH2; C-terminus: as shown in table; counterion: Cl^−.

[2] = system: P. aeruginosa; type: cell-based, Pseudomonas aeruginosa
Procedure: as §1, §2
StAMP Micelle Formulation: DSPE-MPEG(2000) was suspended in buffered saline at 50-100 mg/mL overnight. StAMP stock solutions at 5-20 mg/mL in buffered saline were prepared and equal volumes of micelle and StAMP stock solution were mixed at the desired StAMP:Lipid ratio. Suspensions were allowed to sit for 5-10 minutes at room temperature before being used in in vitro and in vivo assays. […]

[3] = in vitro; type: cell-based; conditions: human, Inhibitory Concentration at 50% Cytotoxicity (IC50) Human Liver Cells (HepG2)
Procedure: Cell culture: RPTEC were maintained in MEM media supplemented with growth factors. HEPG2 cell line was maintained in Eagle's Minimum Essential Medium (EMEM) supplemented with fetal bovine serum to a final concentration of 10%.
48 hours cytotoxicity assay: Cells were plated in a 96-well format, and after 4 hour incubation to allow attachment, serial dilutions of StAMPs from a 5 mg/mL water stock, or vehicle, were then added to the cells in a final volume of 100 μl. After incubating at 37° C. for 48 hours, 100 μl of CellTiter-Glo® reagent was added to the cells, and the plates were incubated 10 minutes at room temperature. Luminescence was then measured on a microplate reader.
as §2

[4] = system: S. aureus; type: cell-based, Staphylococcus aureus
Procedure: as §1, §2

[5] = system: A. baumannii; type: cell-based, Acinetobacter baumannii
Procedure: as §1, §2

[6] = system: E. coli; type: cell-based, Escherichia coli
Procedure: as §1, §2

Minimum Inhibitory Concentration (MIC) K. pneumoniae [1]	Minimum Inhibitory Concentration (MIC) P. aeruginosa [2]	Minimum Inhibitory Concentration (MIC) S. aureus [4]	Minimum Inhibitory Concentration (MIC) A. baumannii [5]	Minimum Inhibitory Concentration (MIC) E. coli [6]	Structure (SMILES)	IC50 at 48 hours [3]
64 µg/mL	2 µg/mL	>64 µg/mL	1 µg/mL	4 µg/mL	CC(C)[C@@H]1NC(=O)[C@@](C)(NC(=O)[C@H](C)NC(=O)[C@H](CCCCN)NC(=O)CNC(=O)[C@H](Cc2ccccc2)NC(=O)[C@H](CCCCN)NC(=O)[C@H](CCCCN)NC(=O)[C@H](CN)NC(=O)[C@H](CCCCN)NC(=O)[C@H](CN)NC(=O)[C@]2(C)CCCC=CCCC[C@](C)(NC(=O)CN)C(=O)NCC(=O)N[C@@H](CCCCN)C(=O)N[C@@H](Cc3ccccc3)C(=O)N2)CCCC=CCCC[C@@](C)(C(=O)N[C@@H](C)C(=O)N[C@@H](CCCCN)C(=O)N[C@@H](CCCCN)C(N)=O)NC(=O)[C@H](CCC(=O)O)NC(=O)CNC1=O [compound 82] (H-G[S5]GKF[S5][Dap]K[Dap]KKFGKA[S5]VGE[S5]AKK-NH2; staple 2-6, 16-20)	190 µg/mL (≈ 76.6 µM)
6 µg/mL	4 µg/mL	32 µg/mL	2 µg/mL	2 µg/mL	CC(C)[C@@H]1NC(=O)[C@@](C)(NC(=O)[C@H](C)NC(=O)[C@H](CCCCN)NC(=O)CNC(=O)[C@H](Cc2ccccc2)NC(=O)[C@H](CCCCN)NC(=O)[C@H](CCCCN)NC(=O)[C@H](CCCCN)NC(=O)[C@H](CCCCN)NC(=O)[C@H](CCCCN)NC(=O)[C@]2(C)CCCC=CCCC[C@](C)(NC(=O)CN)C(=O)NCC(=O)N[C@@H](CCCCN)C(=O)N[C@@H](Cc3ccccc3)C(=O)N2)CCCC=CCCC[C@@](C)(C(=O)N[C@@H](C)C(=O)N[C@@H](CCN)C(=O)N[C@@H](CCCCN)C(N)=O)NC(=O)[C@H](CCC(=O)O)NC(=O)CNC1=O [compound 44] (H-G[S5]GKF[S5]KKKKKFGKA[S5]VGE[S5]A[Dab]K-NH2; staple 2-6, 16-20)	87 µg/mL (≈ 34.3 µM)
8 µg/mL	4 µg/mL	32 µg/mL	2 µg/mL	4 µg/mL	CC(C)[C@@H]1NC(=O)[C@@](C)(NC(=O)[C@H](C)NC(=O)[C@H](CCCCN)NC(=O)CNC(=O)[C@H](Cc2ccccc2)NC(=O)[C@H](CCCCN)NC(=O)[C@H](CCN)NC(=O)[C@H](CCCCN)NC(=O)[C@H](CCCCN)NC(=O)[C@H](CCCCN)NC(=O)[C@]2(C)CCCC=CCCC[C@](C)(NC(=O)CN)C(=O)NCC(=O)N[C@@H](CCCCN)C(=O)N[C@@H](Cc3ccccc3)C(=O)N2)CCCC=CCCC[C@@](C)(C(=O)N[C@@H](C)C(=O)N[C@@H](CCCCN)C(=O)N[C@@H](CCCCN)C(N)=O)NC(=O)[C@H](CCC(=O)O)NC(=O)CNC1=O [compound 43] (H-G[S5]GKF[S5]KKK[Dab]KFGKA[S5]VGE[S5]AKK-NH2; staple 2-6, 16-20)	127 µg/mL (≈ 50.1 µM)
16 µg/mL	2 µg/mL	64 µg/mL	0.5 µg/mL	2 µg/mL	CC(C)[C@@H]1NC(=O)[C@@](C)(NC(=O)[C@H](C)NC(=O)[C@H](CCCCN)NC(=O)CNC(=O)[C@H](Cc2ccccc2)NC(=O)[C@H](CCCCN)NC(=O)[C@H](CCCCN)NC(=O)[C@H](CCCCN)NC(=O)[C@H](CO)NC(=O)[C@H](CN)NC(=O)[C@]2(C)CCCC=CCCC[C@](C)(NC(=O)CN)C(=O)NCC(=O)N[C@@H](CCCCN)C(=O)N[C@@H](Cc3ccccc3)C(=O)N2)CCCC=CCCC[C@@](C)(C(=O)N[C@@H](C)C(=O)N[C@@H](CCCCN)C(=O)N[C@@H](CCCCN)C(N)=O)NC(=O)[C@H](CCC(=O)O)NC(=O)CNC1=O [compound 85] (H-G[S5]GKF[S5][Dap]SKKKFGKA[S5]VGE[S5]AKK-NH2; staple 2-6, 16-20)	> 200 µg/mL

Further lines, the compound ahead of its results:

Structure (SMILES)	Minimum Inhibitory Concentration (MIC) K. pneumoniae [1]	Minimum Inhibitory Concentration (MIC) P. aeruginosa [2]	Minimum Inhibitory Concentration (MIC) S. aureus [4]	Minimum Inhibitory Concentration (MIC) A. baumannii [5]	Minimum Inhibitory Concentration (MIC) E. coli [6]	IC50 at 48 hours [3]
CC(C)[C@@H]1NC(=O)[C@@](C)(NC(=O)[C@H](C)NC(=O)[C@H](CCCCN)NC(=O)CNC(=O)[C@H](Cc2ccccc2)NC(=O)[C@H](CCCCN)NC(=O)[C@H](CCCCN)NC(=O)[C@H](CCCCN)NC(=O)[C@H](CCCCN)NC(=O)[C@H](CCCCN)NC(=O)[C@]2(C)CCCC=CCCC[C@](C)(NC(=O)CN)C(=O)NCC(=O)N[C@@H](CCCCN)C(=O)N[C@@H](Cc3ccccc3)C(=O)N2)CCCC=CCCC[C@@](C)(C(=O)N[C@@H](C)C(=O)N[C@@H](CCCCN)C(=O)N[C@@H](CCCCN)C(=O)NCC(=O)NCC(=O)N[C@@H](CCC(=O)O)C(=O)N[C@@H](CCC(=O)O)C(N)=O)NC(=O)[C@H](CCC(=O)O)NC(=O)CNC1=O [compound 55] (H-G[S5]GKF[S5]KKKKKFGKA[S5]VGE[S5]AKKGGEE-NH2; staple 2-6, 16-20)	64 µg/mL	16 µg/mL	>64 µg/mL	8 µg/mL	16 µg/mL	207 µg/mL (≈ 70.5 µM)
CC(C)[C@@H]1NC(=O)[C@@](C)(NC(=O)[C@H](C)NC(=O)[C@H](CCCCN)NC(=O)CNC(=O)[C@H](Cc2ccccc2)NC(=O)[C@H](CCCCN)NC(=O)[C@H](CCCCN)NC(=O)[C@H](CCCCN)NC(=O)[C@H](CO)NC(=O)[C@H](CCCCN)NC(=O)[C@]2(C)CCCC=CCCC[C@](C)(NC(=O)CN)C(=O)NCC(=O)N[C@@H](CCCCN)C(=O)N[C@@H](Cc3ccccc3)C(=O)N2)CCCC=CCCC[C@@](C)(C(=O)N[C@@H](C)C(=O)N[C@@H](CCCCN)C(=O)N[C@@H](CCCCN)C(=O)NCC(=O)NCC(=O)N[C@@H](CCC(=O)O)C(N)=O)NC(=O)[C@H](CCC(=O)O)NC(=O)CNC1=O [compound 90] (H-G[S5]GKF[S5]KSKKKFGKA[S5]VGE[S5]AKKGGE-NH2; staple 2-6, 16-20)	32 µg/mL	2 µg/mL	64 µg/mL	2 µg/mL	4 µg/mL	> 200 µg/mL
CC(C)[C@@H]1NC(=O)[C@@](C)(NC(=O)[C@H](C)NC(=O)[C@H](CCCCN)NC(=O)CNC(=O)[C@H](Cc2ccccc2)NC(=O)[C@H](CCCCN)NC(=O)[C@H](CCCCN)NC(=O)[C@H](CCCCN)NC(=O)[C@H](CCCCN)NC(=O)[C@H](CCCCN)NC(=O)[C@]2(C)CCCC=CCCC[C@](C)(NC(=O)CN)C(=O)NCC(=O)N[C@@H](CCCCN)C(=O)N[C@@H](Cc3ccccc3)C(=O)N2)CCCC=CCCC[C@@](C)(C(=O)N[C@@H](C)C(=O)N[C@@H](CCCCN)C(=O)N[C@@H](CCCCN)C(=O)NCC(=O)NCC(=O)NCC(=O)N[C@@H](CCC(=O)O)C(N)=O)NC(=O)[C@H](CCC(=O)O)NC(=O)CNC1=O [compound 54] (H-G[S5]GKF[S5]KKKKKFGKA[S5]VGE[S5]AKKGGGE-NH2; staple 2-6, 16-20)	32 µg/mL	8 µg/mL	>64 µg/mL	4 µg/mL	8 µg/mL	262 µg/mL (≈ 91.5 µM)
